{
  "source": "patent US20040138198A1",
  "about": "“Vasectomy procedure and related kit” (priority 2001, published 2004)",
  "key": {"[1]": {"tested_on": "sperm in vas", "assay": "non-GLP study, in vivo effect on motility and viability of sperm in vas", "settings": "injection, 0.2 mg/kg body weight; saline injected controls 35%", "description": "In another non-GLP study, the in vivo effect of diltiazem on motility and viability of sperm in vas was observed."}, "[2]": {"tested_on": "vasa deferentia", "settings": "rat, in vivo", "description": "A dose ranging non-GLP study was conducted in rats to determine the local toxic effect of diltiazem on vasa deferentia."}},
  "data": [
    {"smiles": "COc1ccc([C@@H]2Sc3ccccc3N(CCN(C)C)C(=O)[C@@H]2OC(C)=O)cc1", "note": "[diltiazem]", "values": [
      {"measurement": "percentage of non-viable sperm", "setting": "[1]", "value": 92, "unit": "%"},
      {"measurement": "changes in the histology of the vas", "setting": "[2]; 0.2 mg/kg", "value": "did not cause any changes in the histology of the vas"},
      {"measurement": "effect on the vas", "setting": "[2]; 2 mg/kg", "value": "no effect on the vas"},
      {"measurement": "mortality of rats", "setting": "[2]; 50 mg/kg", "value": "no mortality"}
    ]}
  ]
}
